According to ChEMBL document CHEMBL4043280, “Preparation of 5'-deoxy-5'-amino-5'-C-methyl adenosine derivatives and their activity against DOT1L” (Bioorg Med Chem Lett, 2017):

Target: Histone-lysine N-methyltransferase, H3 lysine-79 specific (Homo sapiens, UniProt Q8TEK3)
Assay: Inhibition of recombinant human N-terminal GST-tagged DOT1L (2 to 416 residues) expressed in Escherichia coli assessed as reduction in histone H3 lysine-N-methyltransferase activity using nucleosomes after 3 hrs in presence of SAM by AlphLisa assay

Chain of Histone-lysine N-methyltransferase, H3 lysine-79 specific (Q8TEK3 whole entry, the tested form may be a part): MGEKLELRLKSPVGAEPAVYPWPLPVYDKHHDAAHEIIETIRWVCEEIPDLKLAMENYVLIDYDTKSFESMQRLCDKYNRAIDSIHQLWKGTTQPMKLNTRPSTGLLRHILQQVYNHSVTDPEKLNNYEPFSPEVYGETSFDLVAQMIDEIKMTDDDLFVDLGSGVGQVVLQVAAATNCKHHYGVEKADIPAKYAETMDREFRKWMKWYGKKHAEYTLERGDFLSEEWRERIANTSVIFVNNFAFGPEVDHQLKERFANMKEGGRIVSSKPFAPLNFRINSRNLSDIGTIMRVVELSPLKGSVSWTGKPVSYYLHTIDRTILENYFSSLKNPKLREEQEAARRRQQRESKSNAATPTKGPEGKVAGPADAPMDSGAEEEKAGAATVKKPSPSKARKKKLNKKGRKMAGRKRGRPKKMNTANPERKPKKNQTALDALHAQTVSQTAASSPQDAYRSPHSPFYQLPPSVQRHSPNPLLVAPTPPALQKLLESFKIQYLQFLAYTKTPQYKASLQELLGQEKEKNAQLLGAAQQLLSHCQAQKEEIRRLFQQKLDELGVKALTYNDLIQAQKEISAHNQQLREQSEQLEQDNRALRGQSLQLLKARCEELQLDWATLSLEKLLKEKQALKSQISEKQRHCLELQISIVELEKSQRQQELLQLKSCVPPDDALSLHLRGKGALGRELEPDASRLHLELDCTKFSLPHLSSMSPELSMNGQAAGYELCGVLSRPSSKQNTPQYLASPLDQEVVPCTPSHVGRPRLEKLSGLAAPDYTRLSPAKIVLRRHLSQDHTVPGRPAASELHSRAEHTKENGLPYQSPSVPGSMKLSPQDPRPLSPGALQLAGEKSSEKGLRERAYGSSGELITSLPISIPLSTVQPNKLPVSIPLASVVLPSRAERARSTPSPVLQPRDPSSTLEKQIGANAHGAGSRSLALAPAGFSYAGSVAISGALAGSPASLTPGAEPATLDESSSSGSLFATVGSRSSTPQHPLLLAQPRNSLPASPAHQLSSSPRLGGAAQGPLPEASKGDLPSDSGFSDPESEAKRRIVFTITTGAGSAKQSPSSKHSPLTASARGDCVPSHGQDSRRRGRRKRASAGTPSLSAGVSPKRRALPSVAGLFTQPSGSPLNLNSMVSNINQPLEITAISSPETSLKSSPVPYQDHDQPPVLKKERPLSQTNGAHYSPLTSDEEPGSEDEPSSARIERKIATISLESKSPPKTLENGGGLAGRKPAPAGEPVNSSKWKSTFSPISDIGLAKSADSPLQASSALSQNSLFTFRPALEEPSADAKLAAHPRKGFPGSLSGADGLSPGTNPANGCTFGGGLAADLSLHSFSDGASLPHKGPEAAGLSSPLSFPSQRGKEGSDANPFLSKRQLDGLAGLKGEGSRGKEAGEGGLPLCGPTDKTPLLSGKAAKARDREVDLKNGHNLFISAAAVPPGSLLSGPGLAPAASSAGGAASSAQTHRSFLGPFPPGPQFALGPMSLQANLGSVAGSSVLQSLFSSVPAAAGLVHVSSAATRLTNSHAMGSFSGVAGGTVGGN

With `C[C@@H]([C@H]1O[C@@H](n2cnc3c(N)ncnc32)[C@H](O)[C@@H]1O)N(C1CC(CCc2nc3cc(C(C)(C)C)ccc3[nH]2)C1)C1CC(CCc2nc3cc(C(C)(C)C)ccc3[nH]2)C1` (some centres undefined) the IC50 was 2160 nM.

In the case of `C[C@H](NC1CC(CCc2nc3cc(C(C)(C)C)ccc3[nH]2)C1)[C@H]1O[C@@H](n2cnc3c(N)ncnc32)[C@H](O)[C@@H]1O` (some centres undefined), the IC50 is reported as 690 nM.

In the case of `CC(C)N(CCCNC(=O)Nc1ccc(C(C)(C)C)cc1)[C@@H](C)[C@H]1O[C@@H](n2cnc3c(N)ncnc32)[C@H](O)[C@@H]1O`, the IC50 is reported as 6.34 nM.

`C[C@@H]([C@H]1O[C@@H](n2cnc3c(N)ncnc32)[C@H](O)[C@@H]1O)N(C1CCC1)C1CC(CCc2nc3cc(C(C)(C)C)ccc3[nH]2)C1` (some centres undefined) showed an IC50 of 1430 nM.
